According to patent publication US12077483B2, “Modified amine lipids” (Intellia Therapeutics, Inc., priority 2018, dated 2024):
Values joined by “and” are separate entries in the source; they are usually repeats but may differ in a detail not shown here. Equal values may be shown once.

Key:
[1] = RNA encapsulation efficiency of LNP (Ribogreen fluorescence assay); format: physicochemical
Procedure, shortened: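 LNP samples diluted in 1× TE with or without 0.2% Triton-X 100 for total or free RNA, stained ~10 min at room temperature in the dark with RiboGreen; fluorescence ex 488/em 525 nm against RNA standard curves. Encapsulation efficiency = (Total RNA−Free RNA)/Total RNA.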

[2] = pKa of amine lipid by TNS fluorescence; format: physicochemical; settings: probe TNS (6-(p-toluidino)-2-naphthalenesulfonic acid sodium salt), unformulated amine lipid in ethanol, sodium phosphate buffers -9.0
Procedure, shortened: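 pKa derived from a sigmoidal fit of normalized TNS fluorescence (321 nm excitation, 448 nm emission) versus pH. Lipid from ethanol stock diluted to about 100 μM final in 0.1 M phosphate buffers, pH 4.5–9.0.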

[3] = LNP average particle size and polydispersity by dynamic light scattering; format: physicochemical
Procedure, shortened: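 LNPs were diluted in PBS to a count rate of about 200-400 kcps and measured by DLS on a Zetasizer. Size is the intensity-weighted Z-average diameter, reported with number-average diameter, and the polydispersity index describes the spread of sizes around the mean.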

[4] = test system: mouse TTR; assay: Serum TTR ELISA in mice after LNP delivery; format: in vivo
Procedure, shortened: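 Mouse TTR in serum was quantified by ELISA (samples diluted e.g. 10,000- and/or 2,500-fold) 6–7 days after dosing CD-1 females with LNP, typically 0.1 mpk. Values are reported relative to vehicle-treated controls (%).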

[5] = LNP with the compound as amine lipid, Expt. 2, composition ratio (mol %) 50/9/39.5/3 for Cmpnd 49, 50/9/39.5/1.5 for the others
[6] = LNP with the compound as amine lipid, Expt. 7, composition ratio (mol %) 50/9/38/3 for Cmpnd 49, 50/10/38.5/1.5 for the others
[7] = Table 10, LNP with G00534 sgRNA:Cas9 mRNA 1:2 w/w
[8] = mouse serum, relative to TSS control of same experiment, dose 0.1 mpk
[9] = Table 6, LNP with G00282 sgRNA:Cas9 mRNA 1:1 w/w
[10] = LNP with the compound as amine lipid, Expt. 3, composition ratio (mol %) 50/9/38/3 for Cmpnd 49, 50/10/38.5/1.5 for the others
[11] = Table 13, LNP sgRNA:Cas9 mRNA 1:2 w/w, N/P 6.0
[12] = mouse serum, relative to TSS control of same experiment, dose 0.03 mpk
[13] = LNP with the compound as amine lipid, Expt. 4, composition ratio (mol %) 50/9/38/3 for Cmpnd 49, 50/10/38.5/1.5 for the others
[14] = Table 4, LNP with G00282 sgRNA:Cas9 mRNA 1:1 w/w, N/P 6.0
[15] = LNP with the compound as amine lipid, Expt. 8, composition ratio (mol %) 50/9/38/3 for Cmpnd 49, 50/10/38.5/1.5 for the others
[16] = Table 3, guide G282, CD-1 female mice, 0.1 mpk i.v., Exp. 1, 8, 9, 10
[17] = Table 3, guide G282, CD-1 female mice, 0.1 mpk i.v., percentage of vehicle control (TSS)
[18] = LNP with the compound as amine lipid, Expt. 1, composition ratio (mol %) 50/9/38/3 for Cmpnd 49, 50/10/38.5/1.5 for the others

In the case of `CCCCC/C=C\C/C=C\CCCCCCCC(=O)OCC(COC(=O)CCCCCCC/C=C\C/C=C\CCCCC)OC(=O)CCC(CCCCCC)OC(=O)OCCCN1CCCC1` (centres unmarked) [Compound 45, 2-((4-(((3-(pyrrolidin-1-yl)propoxy)carbonyl)oxy)decanoyl)oxy)propane-1,3-diyl (9Z,9′Z,12Z,12′Z)-bis(octadeca-9,12-dienoate)], the “Encapsulation (%)” value [1, 5] is reported as 99%, the “Encapsulation (%)” value [1, 6] is reported as 98% and the “Encapsulation (%)” value [1, 7] is reported as 95%. The pKa [2] was 5.79, the “Num Ave Size (nm)” value [3, 5] was 85.54 nm and the PDI [3, 5] was 0.021. For the same molecule, the “Z-Ave Size (nm)” value [3, 5] was 102.70 nm, the “Num Ave Size (nm)” value [3, 6] was 77.92 nm and the PDI [3, 6] was 0.012. The “Z-Ave Size (nm)” value [3, 6] was 95.26 nm, the “Num Avg Size (nm)” value [3, 7] was 83.48 nm and the PDI [3, 7] was 0.052. The “Z-Avg Size (nm)” value [3, 7] was 101.00 nm, the “Serum TTR % TSS” value ([4]; mouse serum, relative to TSS control of same experiment, dose 0.03 mpk, 0.03 mg/kg) was 78.39 % TSS and 43.435 % TSS and the “Serum TTR % TSS” value [4, 8] was 10.09 % TSS.

For `CCCCC/C=C\C/C=C\CCCCCCCC(=O)OCC(COC(=O)CCCCCCC/C=C\C/C=C\CCCCC)OC(=O)CCC(CCCCCCCCCCCC)OC(=O)OCCCN1CCCC1` (centres unmarked) [Compound 5, 2-((4-(((3-(pyrrolidin-1-yl)propoxy)carbonyl)oxy)hexadecanoyl)oxy)propane-1,3-diyl (9Z,9′Z,12Z,12′Z)-bis(octadeca-9,12-dienoate)], the “Encapsulation (%)” value [1, 9] was 99%, the pKa [2] was 6.25 and the “Num Ave Size (nm)” value [3, 9] was 62.64 nm. The PDI [3, 9] was 0.009, the “Z-Ave Size (nm)” value [3, 9] was 76.02 nm and the “Serum TTR” value ([4]; Table 7, G00282, CD-1 female mice i.v., dose 0.1 mpk) was 549 µg/mL. The “Serum TTR % TSS” value ([4]; Table 7, G00282, CD-1 female mice i.v., dose 0.1 mpk, percentage of vehicle control) was 67% TSS, the “Serum TTR” value ([4]; Table 7, G00282, CD-1 female mice i.v., dose 0.3 mpk) was 233 µg/mL and the “Serum TTR % TSS” value ([4]; Table 7, G00282, CD-1 female mice i.v., dose 0.3 mpk, percentage of vehicle control) was 28% TSS.

For `CCCCC/C=C\C/C=C\CCCCCCCC(=O)OCC(COC(=O)CCCCCCC/C=C\C/C=C\CCCCC)OC(=O)CCC(CCCCC)OC(=O)NCCN1CCCC1` (centres unmarked) [Compound 72, 2-((4-(((2-(pyrrolidin-1l-yl)ethyl)carbamoyl)oxy)nonanoyl)oxy)propane-1,3-diyl (9Z,9′Z,12Z,12′Z)-bis(octadeca-9,12-dienoate)], the “Encapsulation (%)” value [1, 10] was 98%, the “% E” value [1, 11] was 94% and the pKa [2] was 7.01. The “Num Ave Size (nm)” value [3, 10] was 88.38 nm, the PDI [3, 10] was 0.02 and the “Z-Ave Size (nm)” value [3, 10] was 106.80 nm. For the same molecule, the “Number Average [nm]” value [3, 11] was 91.47 nm, the PDI [3, 11] was 0.018 and the “Z-Ave Size (nm)” value [3, 11] was 111.4 nm. For the same molecule, the “Serum TTR % TSS” value [4, 12] was 66.92 % TSS and the “Serum TTR % TSS” value [4, 8] was 26.43 % TSS.

With `CCCCC/C=C\C/C=C\CCCCCCCC(=O)OCC(COC(=O)CCCCCCC/C=C\C/C=C\CCCCC)OC(=O)CCC(CCCCCCCC)OC(=O)OCCCN1CCCC1` (centres unmarked) [Compound 36, 2-((4-(((3-(pyrrolidin-1-yl)propoxy)carbonyl)oxy)dodecanoyl)oxy)propane-1,3-diyl (9Z,9′Z,12Z,12′Z)-bis(octadeca-9,12-dienoate)] the “Encapsulation (%)” value [1, 6] was 98%, the pKa [2] was 6.13 and the “Num Ave Size (nm)” value [3, 6] was 58.34 nm. For the same molecule, the PDI [3, 6] was 0.058, the “Z-Ave Size (nm)” value [3, 6] was 75.9 nm and the “Serum TTR % TSS” value [4, 12] was 75.785 % TSS. The “Serum TTR % TSS” value [4, 8] was 43.824 % TSS.

With `CCCCC/C=C\C/C=C\CCCCCCCC(=O)OCC(COC(=O)CCCCCCC/C=C\C/C=C\CCCCC)OC(=O)CCC(CCCCCCCCCCCC)OC(=O)NCCN(C)CC` (centres unmarked) [Compound 7, 2-((4-(((2-(ethyl(methyl)amino)ethyl)carbamoyl)oxy)hexadecanoyl)oxy)propane-1,3-diyl (9Z,9′Z,12Z,12′Z)-bis(octadeca-9,12-dienoate)] the “Encapsulation (%)” value [1, 13] was 98%, the “Encapsulation (%)” value [1, 14] was 97% and the pKa [2] was 6.36. For the same molecule, the “Num Ave Size (nm)” value [3, 13] was 73.07 nm, the PDI [3, 13] was 0.002 and the “Z-Ave Size (nm)” value [3, 13] was 87.61 nm. The “Num Ave Size (nm)” value [3, 14] was 68.39 nm, the PDI [3, 14] was 0.033 and the “Z-Ave Size (nm)” value [3, 14] was 85.09 nm. For the same molecule, the “Serum TTR” value ([4]; Table 3, guide G282, CD-1 female mice, 0.1 mpk i.v., Exp. 1, 8, 9, 10, 0.1 mg/kg) was 270 µg/mL and 271 µg/mL, the “Serum TTR % TSS” value ([4]; Table 3, guide G282, CD-1 female mice, 0.1 mpk i.v., percentage of vehicle control (TSS), 0.1 mg/kg) was 31% TSS and 33% TSS and the “Serum TTR % TSS” value [4, 12] was 58% TSS. The “Serum TTR % TSS” value [4, 8] was 10% TSS.

In the case of `CCCCC/C=C\C/C=C\CCCCCCCC(=O)OCC(COC(=O)CCCCCCC/C=C\C/C=C\CCCCC)OC(=O)CCC(CCCCCCCC)OC(=O)NCC1CCCN1C` (centres unmarked) [Compound 35, 2-((4-((((1-methylpyrrolidin-2-yl)methyl)carbamoyl)oxy)dodecanoyl)oxy) propane-1,3-diyl (9Z,9′Z,12Z,12′Z)-bis(octadeca-9,12-dienoate)], the “Encapsulation (%)” value [1, 15] is reported as 99%, the pKa [2] is reported as 6.35 and the “Num Ave Size (nm)” value [3, 15] is reported as 62.82 nm. For the same molecule, the PDI [3, 15] was 0.068, the “Z-Ave Size (nm)” value [3, 15] was 81.51 nm and the “Serum TTR % TSS” value [4, 12] was 104.30 % TSS. The “Serum TTR % TSS” value [4, 8] was 99.13 % TSS.

In the case of `CCCCC/C=C\C/C=C\CCCCCCCC(=O)OCC(COC(=O)CCCCCCC/C=C\C/C=C\CCCCC)OC(=O)CCC(CCCCCCCCCCCC)OC(=O)NCC1CCCN1C` (centres unmarked) [Compound 9, 2-((4-((((1-methylpyrrolidin-2-yl)methyl)carbamoyl)oxy)hexadecanoyl)oxy) propane-1,3-diyl (9Z,9′Z,12Z,12′Z)-bis(octadeca-9,12-dienoate)], the “Encapsulation (%)” value [1, 15] is reported as 98%, the “Encapsulation (%)” value [1, 14] is reported as 97% and the pKa [2] is reported as 6.32. The “Num Ave Size (nm)” value [3, 15] was 48.82 nm, the PDI [3, 15] was 0.074 and the “Z-Ave Size (nm)” value [3, 15] was 64.83 nm. For the same molecule, the “Num Ave Size (nm)” value [3, 14] was 59.99 nm, the PDI [3, 14] was 0.033 and the “Z-Ave Size (nm)” value [3, 14] was 74.83 nm. For the same molecule, the “Serum TTR” value [4, 16] was 339 µg/mL, the “Serum TTR % TSS” value [4, 17] was 38% TSS and the “Serum TTR % TSS” value [4, 12] was 114.02 % TSS. The “Serum TTR % TSS” value [4, 8] was 103.19 % TSS.

In the case of `CCCCC/C=C\C/C=C\CCCCCCCC(=O)OCC(COC(=O)CCCCCCC/C=C\C/C=C\CCCCC)OC(=O)CCC(CCCCCCCCCCCC)OC(=O)OCCCN(C)C` (centres unmarked) [Compound 1, 2-((4-(((3-(dimethylamino)propoxy)carbonyl)oxy)hexadecanoyl)oxy)propane-1,3-diyl (9Z,9′Z,12Z,12′Z)-bis(octadeca-9,12-dienoate)], the “Encapsulation (%)” value [1, 18] is reported as 99%, the pKa [2] is reported as 6.35 and the “Num Ave Size (nm)” value [3, 18] is reported as 54.84 nm. For the same molecule, the PDI [3, 18] was 0.04, the “Z-Ave Size (nm)” value [3, 18] was 68.63 nm and the “Serum TTR” value [4, 16] was 671 µg/mL. For the same molecule, the “Serum TTR % TSS” value [4, 17] was 76% TSS and the “Serum TTR % TSS” value [4, 8] was 48.49 % TSS.
